Results reported in patent US7994172B2, “[1H-pyrazolo[3, 4-D]pyrimidin-4-yl]-piperidine or -piperazine compounds as serine-theoronine kinase modulators (P70s6k, Atk1 and Atk2) for the treatment of immunological, inflammatory and proliferative diseases” (Exelixis, Inc., priority 2004, dated 2011).

Columns and labels:
Assay type in all cases: biochemical
[1] = biological target: T1, human Akt1 kinase (kinase domain residues R144-A480, activated with PDK1) (Homo sapiens, UniProt P31749); experiment: Akt1 kinase assay, Luciferase-Coupled Chemiluminescent Kinase assay (LCCA); conditions: 1 μM ATP, 1.3 nM Akt1; read-out: Akt-1 inhibition IC50
T1 construct: made in house
T1 sequence (P31749 144-480): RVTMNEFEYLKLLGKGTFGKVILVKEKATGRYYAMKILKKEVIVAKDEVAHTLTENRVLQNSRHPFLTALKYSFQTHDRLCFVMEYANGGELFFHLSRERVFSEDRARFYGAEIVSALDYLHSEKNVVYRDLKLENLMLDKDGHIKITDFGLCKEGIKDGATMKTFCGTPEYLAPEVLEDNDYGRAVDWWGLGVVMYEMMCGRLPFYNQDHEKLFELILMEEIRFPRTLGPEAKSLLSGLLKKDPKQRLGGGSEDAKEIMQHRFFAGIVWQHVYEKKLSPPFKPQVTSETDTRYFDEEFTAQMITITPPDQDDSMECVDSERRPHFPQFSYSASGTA
Procedure, shortened: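 Baculovirus-expressed PDK1-activated Akt1 kinase domain (R144-A480), 1.3 nM, with 5 μM crosstide and 1 μM ATP in Tris pH 7.5 with MgCl2/MnCl2, 3 h at ambient temperature. Remaining ATP read by luciferase-luciferin chemiluminescence; 10-point IC50 from four-parameter fit.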

[2] = biological target: T2, human Akt2 kinase (kinase domain residues K146-R480) (Homo sapiens, UniProt P31751); experiment: Akt2 kinase assay, Luciferase-Coupled Chemiluminescent Kinase assay (LCCA); conditions: 2 μM ATP, 10 nM Akt2; read-out: Akt-2 inhibition IC50
T2 construct: human Akt2 kinase domain residues K146-R480; made in house
T2 sequence (P31751 146-480): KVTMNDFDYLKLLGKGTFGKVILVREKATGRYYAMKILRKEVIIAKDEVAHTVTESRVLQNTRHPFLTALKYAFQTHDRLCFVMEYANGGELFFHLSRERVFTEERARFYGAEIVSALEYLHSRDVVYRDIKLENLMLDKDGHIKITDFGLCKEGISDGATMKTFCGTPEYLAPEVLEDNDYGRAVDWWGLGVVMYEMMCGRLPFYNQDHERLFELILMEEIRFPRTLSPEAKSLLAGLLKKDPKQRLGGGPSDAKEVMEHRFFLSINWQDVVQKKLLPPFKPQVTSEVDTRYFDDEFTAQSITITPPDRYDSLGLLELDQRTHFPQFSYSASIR
Description: Kinase activity and compound inhibition are investigated using one or more of the three assay formats described below. The ATP concentrations for each assay are selected to be close to the Michaelis-Menten constant (KM) for each individual kinase. Dose-response experiments are performed at 10 different inhibitor concentrations in a 384-well plate format. The data are fitted to four-parameter equation (2) below; where Y is the observed signal, X is the inhibitor concentration, Min is the background signal in the absence of enzyme (0% enzyme activity), Max is the signal in the absence of inhibitor (100% enzyme activity), IC50 is the inhibitor concentration at 50% enzyme inhibition and H represents the empirical Hill's slope to measure the cooperativity. Typically H is close to unity. Y=Min+(Max−Min)/(1+(X/IC50)^H) Equation (2) p70S6 Kinase Assay
Biochemical activity of Akt2 kinase was assessed using a Luciferase-Coupled Chemiluminescent Kinase assay (LCCA) format. Kinase activity was measured as the percent ATP remaining following the kinase reaction. Remaining ATP was detected by luciferase-luciferin-coupled chemiluminescence. Specifically, the reaction was initiated by mixing test compounds, 2 μM ATP, 5 μM crosstide peptide and 10 nM Akt2 (baculovirus expressed human Akt2 kinase domain residues K146-R480) in a 20 uL assay buffer (20 mM Tris-HCL pH 7.5, 10 mM MgCl2, 0.03% Triton X-100, 1 mM DTT, 3 mM MnCl2). The mixture is incubated at ambient temperature for 2 hours after which 20 μL luciferase-luciferin mix is added and the chemiluminescent signal read using a Wallac Victor2 reader. The luciferase-luciferin mix consists of 50 mM HEPES, pH 7.8, 8.5 μg/mL oxalic acid (pH 7.8), 5 (or 50) mM DTT, 0.4% Triton X-100, 0.25 mg/mL coenzyme A, 63 uM AMP, 28 μg/mL luciferin and 40,000 units/mL luciferase.

[3] = biological target: T3, human p70S6 kinase (p70S6K, kinase domain residues 1-421, T412E mutation) (Homo sapiens, UniProt P23443, T412E); experiment: p70S6 kinase assay, Luciferase-Coupled Chemiluminescent Kinase assay (LCCA); conditions: 5 μM ATP, 12 nM p70S6K; read-out: p70S6K inhibition IC50
T3 construct: human p70S6 kinase domainresidues 1-421, containing a T412E mutation; made in house
T3 sequence (P23443 1-421 T412E): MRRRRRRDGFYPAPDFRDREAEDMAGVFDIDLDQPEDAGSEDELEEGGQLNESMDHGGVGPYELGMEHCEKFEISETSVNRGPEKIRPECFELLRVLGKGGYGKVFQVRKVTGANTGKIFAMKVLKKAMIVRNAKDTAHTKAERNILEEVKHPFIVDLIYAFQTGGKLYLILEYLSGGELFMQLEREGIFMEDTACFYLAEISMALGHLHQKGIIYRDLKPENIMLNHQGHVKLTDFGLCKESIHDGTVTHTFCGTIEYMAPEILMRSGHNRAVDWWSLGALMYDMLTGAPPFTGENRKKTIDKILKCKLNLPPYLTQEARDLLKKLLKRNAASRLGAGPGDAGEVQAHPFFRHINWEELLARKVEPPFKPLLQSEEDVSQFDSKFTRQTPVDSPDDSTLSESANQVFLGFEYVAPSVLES
Procedure, shortened: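 Baculovirus-expressed kinase domain (12 nM) reacted 2 h at ambient temperature with 5 μM ATP and 5 μM RRRLSSLRA peptide. Buffer was Tris pH 7.5 with MgCl2, MnCl2, DTT and Triton X-100. Remaining ATP was read by luciferase-luciferin chemiluminescence. IC50 came from 10-point dose-response with a four-parameter Hill fit.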

| SMILES | IC50 [1] [nM] | IC50 [2] [nM] | IC50 [3] [nM] |
| --- | --- | --- | --- |
| O=C(Nc1cccc(C(F)(F)F)c1)N1CCN(c2ncnc3[nH]nc(Br)c23)CC1 [Entry 33, 4-(3-bromo-1H-pyrazolo[3,4-d]pyrimidin-4-yl)-N-[3-(trifluoromethyl)phenyl]piperazine-1-carboxamide] | > 2000 | > 2000 | < 50 |
| Fc1ccc(CN2CCN(c3ncnc4[nH]nc(Br)c34)CC2)cc1 [Entry 34, 3-bromo-4-{4-[(4-fluorophenyl)methyl]piperazin-1-yl}-1H-pyrazolo[3,4-d]pyrimidine] | 500 to 2000 | > 2000 | < 50 |
| Brc1n[nH]c2ncnc(N3CCN(Cc4ccc5c(c4)OCCO5)CC3)c12 [Entry 36, 3-bromo-4-[4-(2,3-dihydro-1,4-benzodioxin-6-ylmethyl)piperazin-1-yl]-1H-pyrazolo[3,4-d]pyrimidine] | > 2000 | > 2000 | < 50 |
| Brc1n[nH]c2ncnc(N3CCN(Cc4ccc5c(c4)OCO5)CC3)c12 [Entry 37, 4-[4-(1,3-benzodioxol-5-ylmethyl)piperazin-1-yl]-3-bromo-1H-pyrazolo[3,4-d]pyrimidine] | 500 to 2000 | > 2000 | < 50 |
| O=C(c1ccc(Cl)cc1)C1CCN(c2ncnc3[nH]nc(Br)c23)CC1 [Entry 38, [1-(3-bromo-1H-pyrazolo[3,4-d]pyrimidin-4-yl)piperidin-4-yl](4-chlorophenyl)methanone] | 500 to 2000 | > 2000 | < 50 |
| Brc1n[nH]c2ncnc(N3CCN(Cc4ccc(Oc5ccccc5)cc4)CC3)c12 [Entry 39, 3-bromo-4-(4-{[4-(phenyloxy)phenyl]methyl}piperazin-1-yl)-1H-pyrazolo[3,4-d]pyrimidine] | > 2000 | > 2000 | < 50 |
| CN(C)c1ccc(CN2CCN(c3ncnc4[nH]nc(Br)c34)CC2)cc1 [Entry 41, 4-{[4-(3-bromo-1H-pyrazolo[3,4-d]pyrimidin-4-yl)piperazin-1-yl]methyl}-N,N-dimethylaniline] | > 2000 | > 2000 | < 50 |
| O=C(/C=C/c1ccccc1)N1CCN(c2ncnc3[nH]nc(Br)c23)CC1 [Entry 43, 3-bromo-4-{4-[(2E)-3-phenylprop-2-enoyl]piperazin-1-yl}-1H-pyrazolo[3,4-d]pyrimidine] | > 2000 | > 2000 | < 50 |
| Brc1ccccc1CN1CCN(c2ncnc3[nH]nc(Br)c23)CC1 [Entry 45, 3-bromo-4-{4-[(2-bromophenyl)methyl]piperazin-1-yl}-1H-pyrazolo[3,4-d]pyrimidine] | > 2000 | > 2000 | < 50 |
| Clc1ccccc1CN1CCN(c2ncnc3[nH]nc(Br)c23)CC1 [Entry 46, 3-bromo-4-{4-[(2-chlorophenyl)methyl]piperazin-1-yl}-1H-pyrazolo[3,4-d]pyrimidine] | > 2000 | > 2000 | < 50 |
| Clc1ccc(CN2CCN(c3ncnc4[nH]nc(Br)c34)CC2)c(Cl)c1 [Entry 47, 3-bromo-4-{4-[(2,4-dichlorophenyl)methyl]piperazin-1-yl}-1H-pyrazolo[3,4-d]pyrimidine] | 500 to 2000 | > 2000 | < 50 |
| Fc1ccc(CN2CCN(c3ncnc4[nH]nc(Br)c34)CC2)c(Cl)c1 [Entry 48, 3-bromo-4-{4-[(2-chloro-4-fluorophenyl)methyl]piperazin-1-yl}-1H-pyrazolo[3,4-d]pyrimidine] | > 2000 | > 2000 | < 50 |
| Brc1n[nH]c2ncnc(N3CCN(Cc4ccccc4)CC3)c12 [Entry 50, 3-bromo-4-[4-(phenylmethyl)piperazin-1-yl]-1H-pyrazolo[3,4-d]pyrimidine] | > 2000 | > 2000 | 50 to 500 |
| O=C(CN1CCN(c2ncnc3[nH]nc(Br)c23)CC1)Nc1ccccn1 [Entry 51, 2-[4-(3-bromo-1H-pyrazolo[3,4-d]pyrimidin-4-yl)piperazin-1-yl]-N-pyridin-2-ylacetamide] | > 2000 | > 2000 | 50 to 500 |
